Measured values from patent US20240307345A1, “R-MDMA and S-MDMA TO ASSIST PSYCHOTHERAPY” (Universitatsspital Basel, priority 2022, published 2024).
Entries after “also recorded” stand apart in the source; their conditions may differ.

Columns and labels:
[1] = human; after administration of racemic MDMA; compared to R-MDA; cited from earlier work
healthy subjects [2] = experiment: Alteration of mind and mystical-type effects on 5D-ASC and MEQ questionnaires; format: in vivo, human; settings: 125 mg
Method: (§1) Study design: The present study compares the acute subjective, physiological and endocrine effects of S-MDMA (125 mg), R-MDMA (125 and 250 mg), MDMA (125 mg) using a placebo-controlled double-blind 5-period cross-over design in 24 healthy subjects. Conditions are 1.) R-MDMA 125 mg, 2). R-MDMA 250 mg, 3) S-MDMA 125 mg, 4) MDMA 125 mg, 5) placebo. Treatment order is counterbalanced. Washout periods between substance administrations are at least 10 days. Study days include a 10-hour study session with a subsequent single measurement (short visit) the next morning (24 hours after drug administration).
(§2) Psychometric assessments: Visual Analog Scale (VAS): VASs is repeatedly used to assess subjective alterations in consciousness over time. Single scales are presented as 100 mm horizontal lines marked with “not at all” on the left and “extremely” on the right. The following VAS items are used: “any drug effect”, “good drug effect”, “bad drug effect”, “stimulated”, “liking”, “happy”, “content”, “talkative”, “open”, “trust”, “feeling close to others”, “anxiety”, “alteration of vision”, “alterations of hearing”, “sounds seem to influence what I see”, “alteration of sense of time”, “the boundaries between myself and my surroundings seem to blur”, “want to be with other people”, and “want to be alone”. Scales are administered before and repeatedly after substance administration and take approximately 2 minutes to fill out. The maximal ratings (Emax, 0-100) and areas under the effect-time curve (AUEC) are defined for each VAS and Emax and AUEC values compared between treatments using analysis of variance. 5-Dimensions of Altered States of Consciousness (5D-ASC): The 5 Dimensions of Altered States of Consciousness (5D-ASC) Scale is a questionnaire containing visual analog scales for 94 items (Studerus et al., 2010). The instrument contains five scales assessing mood, anxiety, derealization, depersonalization, changes in perception, auditory alterations, and reduced vigilance. The scale is well-validated (Studerus et al., 2010) and used internationally to evaluate effects of many other psychoactive substances. The overall psychedelic experience is reflected by the total […] score. Each item of the scale is scored on a 0-100 mm VAS. The attribution of the individual items to the subscales of the 5D-ASC is analyzed according to (Studerus et al., 2010). The 5D-ASC scale is administered once at the end of the session and subjects are instructed to retrospectively rate peak alterations that have been experienced during the study session. Adiective Mood Rating Scale (AMRS): The Adjective Mood Rating Scale (AMRS or EWL60S) is a 60-item Likert scale that allows repeated assessment of mood in 6 dimensions: Activation, inactivation, well-being, anxiety/depressed mood, extra- and introversion, and emotional excitability. The German EWL60S version is used. The AMRS consists of subscales measuring “activation,” “positive mood,” “extraversion,” “introversion,” “inactivation,” and “emotional excitability. The scale has previously been used to evaluate effects of many other psychoactive substances. Emax and AUEC scores will be defined for each subscale and compared between treatments using analysis of variance. The AMRS is administered repeatedly throughout the study session and once 3 days after each session. States of Consciousness Questionnaire (SCQ): In the SCQ, 100-items are rated on a six-point scale. Forty-three items embedded into this questionnaire comprise the Mystical Experience Questionnaire (MEQ) (MacLean et al., 2011) which is sensitive to the effects of psychedelic substances such as LSD. […]

[3] = 75 mg; earlier study; cited from earlier work
rhesus monkeys = settings: cited from earlier work
animals = settings: various animal studies; cited from earlier work
healthy subjects [4] = experiment: Effects on mood on the Adjective Mood Rating Scale (AMRS); format: in vivo, human; settings: 125 mg
Method: as §1, §2

mice [5] = settings: compared with R-MDMA; cited from earlier work
healthy subjects [6] = experiment: Acute subjective effects on the Visual Analog Scale (VAS); format: in vivo, human; settings: 125 mg; compared with both R-MDMA doses and placebo
Method: as §1
Study procedures: The study takes place at the University Hospital Basel. Each of the test sessions last from 8:00 until 18:00 with a short visit the next morning (24 hours after application). An indwelling intravenous catheter is inserted into a subcutaneous vein of the forearm and baseline psychometric measures are obtained. Administration of the substance is at 9:00. Outcome measures (see below) are repeatedly assessed during the study session. Subjects are under continuous medical supervision until any alterations of consciousness have completely subsided and they leave the research facility.
Psychometric assessments: Visual Analog Scale (VAS): VASs is repeatedly used to assess subjective alterations in consciousness over time. Single scales are presented as 100 mm horizontal lines marked with “not at all” on the left and “extremely” on the right. The following VAS items are used: “any drug effect”, “good drug effect”, “bad drug effect”, “stimulated”, “liking”, “happy”, “content”, “talkative”, “open”, “trust”, “feeling close to others”, “anxiety”, “alteration of vision”, “alterations of hearing”, “sounds seem to influence what I see”, “alteration of sense of time”, “the boundaries between myself and my surroundings seem to blur”, “want to be with other people”, and “want to be alone”. Scales are administered before and repeatedly after substance administration and take approximately 2 minutes to fill out. The maximal ratings (Emax, 0-100) and areas under the effect-time curve (AUEC) are defined for each VAS and Emax and AUEC values compared between treatments using analysis of variance. 5-Dimensions of Altered States of Consciousness (5D-ASC): The 5 Dimensions of Altered States of Consciousness (5D-ASC) Scale is a questionnaire containing visual analog scales for 94 items (Studerus et al., 2010). The instrument contains five scales assessing mood, anxiety, derealization, depersonalization, changes in perception, auditory alterations, and reduced vigilance. The scale is well-validated (Studerus et al., 2010) and used internationally to evaluate effects of many other psychoactive substances. The overall psychedelic experience is reflected by the total […] score. Each item of the scale is scored on a 0-100 mm VAS. The attribution of the individual items to the subscales of the 5D-ASC is analyzed according to (Studerus et al., 2010). The 5D-ASC scale is administered once at the end of the session and subjects are instructed to retrospectively rate peak alterations that have been experienced during the study session. Adiective Mood Rating Scale (AMRS): The Adjective Mood Rating Scale (AMRS or EWL60S) is a 60-item Likert scale that allows repeated assessment of mood in 6 dimensions: Activation, inactivation, well-being, anxiety/depressed mood, extra- and introversion, and emotional excitability. The German EWL60S version is used. The AMRS consists of subscales measuring “activation,” “positive mood,” “extraversion,” “introversion,” “inactivation,” and “emotional excitability. The scale has previously been used to evaluate effects of many other psychoactive substances. Emax and AUEC scores will be defined for each subscale and compared between treatments using analysis of variance. The AMRS is administered repeatedly throughout the study session and once 3 days after each session. […]

healthy subjects [7] = experiment: Autonomic effects (blood pressure, heart rate, body temperature); format: in vivo, human; settings: 125 mg
Method: as §1
Autonomic measures: Blood pressure, heart rate, and body temperature are recorded at baseline and repeatedly throughout the session. Blood pressure (systolic and diastolic) and heart rate are measured with an automatic oscillometric device. Body temperature is measured with an ear thermometer. Emax is determined for each of the measures and for each study session. These Emax values are then compared between drug conditions using analysis of variance.

healthy subjects [8] = experiment: Clinical cross-over study, overall comparison of the substances; format: in vivo, human; settings: conclusion over the doses tested
Method: as §1

mice [9] = settings: cited from earlier work
healthy subjects [10] = experiment: Connectedness subscale of the PES questionnaire; format: in vivo, human; settings: 125 mg

Compound	plasma levels of the active metabolite [1]	time of peak plasma level of the active metabolite [1]	acute mystical-type experiences on the 5D-ASC scale (healthy subjects [2]; 24 subjects)	psychedelic effects on the 5D-ASC and the MEQ questionnaires (healthy subjects [2]; compared with placebo (and 125 mg R-MDMA))	body temperature [3]	reinforcing properties (rhesus monkeys)	social interaction (animals)	effects on the AMRS (healthy subjects [4])	onset of interoceptive effects (mice [5])	VAS “talkative,” “open,” “trust,” and “I feel close to others” (healthy subjects [6])	body temperature (healthy subjects [7])	heart rate (healthy subjects [7]; versus placebo)	acute subjective effects and adverse effects (healthy subjects [8])	lethal doses (mice [9])	ratings of connectedness, difference between conditions (healthy subjects [10])
C[C@H](N)Cc1ccc2c(c1)OCO2 [S-MDA]	higher	peaked earlier													
CNC(C)Cc1ccc2c(c1)OCO2 (racemic) [(±)-MDMA, ±3,4-methylenedioxymethamphetamine, reference compound]			comparable effects with no significant differences	comparable and overall greater psychedelic effects	did not significantly increase body temperature	moderate reinforcing properties	Increased social interaction	comparable effects	faster	higher values	increased similarly; also recorded: increased body temperature only moderately	increase heart rate comparably and more than with placebo	overall comparable	similar	no difference
